Measurements: patent US7772271B2 (priority 2004, dated 2010)

Row | SMILES | melting point
1 | COCCOc1ccc2c(C#N)c(-c3ccc(C(=O)N4CCCC4)cc3)n(C3CCC3)c2c1 [Compound 2756] | 162 to 164 °C
2 | COCCOc1ccc2c(C#N)c(-c3ccc(C(=O)N4CCCCC4)cc3)n(C3CCC3)c2c1 [Compound 2757] | 155 to 158 °C
3 | COCCOc1ccc2c(C#N)c(-c3ccc(C(=O)NC4CCCC4)cc3)n(C3CCC3)c2c1 [Compound 2758] | 194 to 196 °C
4 | COCCOc1ccc2c(C#N)c(-c3ccc(C(=O)NC4CCC4)cc3)n(C3CCC3)c2c1 [Compound 2759] | 199 to 200 °C
5 | COCCOc1ccc2c(C#N)c(-c3ccc(C(=O)NC4CC4)cc3)n(C3CCC3)c2c1 [Compound 2760] | 228 to 230 °C
6 | Cc1nccc(Oc2ccc3c(C#N)c(-c4ccc(NC(=O)NC(C)C)cc4)n(C4CCC4)c3c2)n1 [Compound 2761] | 240 to 245 °C
7 | CC(C)NC(=O)Nc1ccc(-c2c(C#N)c3ccc(Oc4ccc(Cl)nn4)cc3n2C2CCC2)cc1 [Compound 2762] | 264 to 269 °C
8 | CC(C)(C)OC(=O)Nc1ccc(-c2c(C#N)c3ccc(N4CCOCC4)cc3n2C2CCC2)cc1 [Compound 2764] | 218 to 220 °C
9 | N#Cc1c(-c2ccc(NS(=O)(=O)C3CC3)cc2)n(CC2CC2)c2cc(OC3CCOCC3)ccc12 [Compound 2768] | 99 to 102 °C
10 | N#Cc1c(-c2ccc(NS(=O)(=O)C3CC3)cc2)n(C2CCC2)c2ccc(OC3COCOC3)cc12 [Compound 2775] | 199 to 203 °C
11 | CCCS(=O)(=O)Nc1ccc(-c2c(C#N)c3cc(OC4COCOC4)ccc3n2C2CCC2)cc1 [Compound 2776] | 183 to 184 °C
12 | CC(C)(C)OC(=O)Nc1ccc(-c2c(C#N)c3ccc(N4CCSCC4)cc3n2C2CCC2)cc1 [Compound 2777] | 191 °C (dec.)
13 | C[C@@H](OC(=O)Nc1ccc(-c2c(C#N)c3ccc(C(=O)O)cc3n2C2CCC2)cc1)C1CC1 [Compound 2778] | 222 to 225 °C
14 | CCOC(CCOc1ccc2c(C#N)c(-c3ccc(NC(=O)OC(C)C)cc3)n(C3CCC3)c2c1)OCC [Compound 2779] | 146 to 150 °C
15 | CCNC(=O)Oc1ccc(-c2c(C#N)c3ccc(OC4CCOCC4)cc3n2CC2CC2)cc1 [Compound 2780] | 155 to 156 °C
16 | CCCNC(=O)Oc1ccc(-c2c(C#N)c3ccc(OC4CCOCC4)cc3n2CC2CC2)cc1 [Compound 2781] | 147 to 148 °C
17 | CC(C)NC(=O)Oc1ccc(-c2c(C#N)c3ccc(OC4CCOCC4)cc3n2CC2CC2)cc1 [Compound 2782] | 161 to 163 °C
18 | CCCCNC(=O)Oc1ccc(-c2c(C#N)c3ccc(OC4CCOCC4)cc3n2CC2CC2)cc1 [Compound 2783] | 146 to 147 °C
19 | N#Cc1c(-c2ccc(OC(=O)NC3CCCC3)cc2)n(CC2CC2)c2cc(OC3CCOCC3)ccc12 [Compound 2784] | 169 to 171 °C
20 | N#Cc1c(-c2ccc(OC(=O)NC3CCCCC3)cc2)n(CC2CC2)c2cc(OC3CCOCC3)ccc12 [Compound 2785] | 158 to 160 °C
21 | CC(C)NS(=O)(=O)Nc1ccc(-c2c(C#N)c3ccc(OC4CCOCC4)cc3n2C2CCC2)cc1 [Compound 2786] | 183 to 185 °C
22 | C[C@@H](OC(=O)Nc1ccc(-c2c(C#N)c3ccc(C(=O)N4CCCCC4)cc3n2C2CCC2)cc1)C1CC1 [Compound 2787] | 148 to 150 °C

Row | SMILES | melting point
23 | C[C@@H](OC(=O)Nc1ccc(-c2c(C#N)c3ccc(C(=O)N4CCCC4)cc3n2C2CCC2)cc1)C1CC1 [Compound 2788] | 124 to 127 °C
24 | N#Cc1c(-c2ccc(OC[C@H]3CCCO3)cc2)n(CC2CC2)c2cc(OC3CCOCC3)ccc12 [Compound 2789] | 133 to 134 °C
25 | N#Cc1c(-c2ccc(OC(=O)N3CCOCC3)cc2)n(CC2CC2)c2cc(OC3CCOCC3)ccc12 [Compound 2790] | 188 to 189 °C
26 | COCCN(C)C(=O)c1ccc2c(C#N)c(-c3ccc(NC(=O)O[C@H](C)C4CC4)cc3)n(C3CCC3)c2c1 [Compound 2791] | 96 to 98 °C
27 | COCCCNC(=O)c1ccc2c(C#N)c(-c3ccc(NC(=O)O[C@H](C)C4CC4)cc3)n(C3CCC3)c2c1 [Compound 2792] | 90 to 94 °C
28 | C[C@@H](OC(=O)Nc1ccc(-c2c(C#N)c3ccc(C(=O)N4CCSCC4)cc3n2C2CCC2)cc1)C1CC1 [Compound 2793] | 148 to 151 °C
29 | COCCN(CCOC)C(=O)c1ccc2c(C#N)c(-c3ccc(NC(=O)O[C@H](C)C4CC4)cc3)n(C3CCC3)c2c1 [Compound 2794] | 75 to 77 °C
30 | C[C@@H](OC(=O)Nc1ccc(-c2c(C#N)c3cc(OCC4COCO4)ccc3n2C2CCC2)cc1)C(F)(F)F (some centres unmarked) [Compound 2799] | 162 to 169 °C
31 | CC(C)S(=O)(=O)Nc1ccc(-c2c(C#N)c3ccc(N4CCOCC4)cc3n2C2CCC2)cc1 [Compound 2801] | 220 °C
32 | N#Cc1c(-c2ccc(NS(=O)(=O)C3CC3)cc2)n(C2CCC2)c2cc(N3CCOCC3)ccc12 [Compound 2802] | 222 to 224 °C
33 | CCCS(=O)(=O)Nc1ccc(-c2c(C#N)c3ccc(N4CCOCC4)cc3n2C2CCC2)cc1 [Compound 2803] | 203 to 204 °C
34 | N#Cc1c(-c2ccc(NC(=O)O[C@@H](c3ccccc3)C(F)(F)F)cc2)n(C2CCC2)c2cc(OCC3OCCO3)ccc12 [Compound 2805] | 174 to 175 °C
35 | N#Cc1c(-c2ccc(NC(=O)O[C@H](c3ccccc3)C(F)(F)F)cc2)n(C2CCC2)c2cc(OCC3OCCO3)ccc12 [Compound 2806] | 175 to 176 °C
36 | CCNC(=O)Oc1ccc(-c2c(C#N)c3ccc(OC4CCOCC4)cc3n2C2CCC2)cc1 [Compound 2807] | 205 to 207 °C
37 | CCCNC(=O)Oc1ccc(-c2c(C#N)c3ccc(OC4CCOCC4)cc3n2C2CCC2)cc1 [Compound 2808] | 153 to 154 °C
38 | CC(C)NC(=O)Oc1ccc(-c2c(C#N)c3ccc(OC4CCOCC4)cc3n2C2CCC2)cc1 [Compound 2809] | 185 to 186 °C
39 | CCCCNC(=O)Oc1ccc(-c2c(C#N)c3ccc(OC4CCOCC4)cc3n2C2CCC2)cc1 [Compound 2810] | 137 to 138 °C
40 | N#Cc1c(-c2ccc(OC(=O)NC3CCCC3)cc2)n(C2CCC2)c2cc(OC3CCOCC3)ccc12 [Compound 2811] | 168 to 169 °C
41 | N#Cc1c(-c2ccc(OC(=O)NC3CCCCC3)cc2)n(C2CCC2)c2cc(OC3CCOCC3)ccc12 [Compound 2812] | 187 to 188 °C
42 | N#Cc1c(-c2ccc(OC(=O)N3CCOCC3)cc2)n(C2CCC2)c2cc(OC3CCOCC3)ccc12 [Compound 2814] | 178 to 179 °C
43 | N#Cc1c(-c2ccc(OC(=O)N3CCCC3)cc2)n(C2CCC2)c2cc(OC3CCOCC3)ccc12 [Compound 2815] | 179 to 181 °C
44 | CCN(CC)C(=O)Oc1ccc(-c2c(C#N)c3ccc(OC4CCOCC4)cc3n2C2CCC2)cc1 [Compound 2816] | 137 to 138 °C

Row | SMILES | melting point
45 | CC(C)NC(=O)Nc1ccc(-c2c(C#N)c3cc(OC4COCOC4)ccc3n2C2CCC2)cc1 [Compound 2817] | 179 to 181 °C
46 | CC(C)Nc1ccc(-c2c(C#N)c3ccc(O[C@@H]4CCOC4)cc3n2C2CC2)cc1 [Compound 2818] | 185 to 187 °C
47 | C[C@@H](NC(=O)Nc1ccc(-c2c(C#N)c3ccc(Oc4ncccn4)cc3n2C2CCC2)cc1)c1ccc(F)cc1 [Compound 2819] | 150 °C (dec.)
48 | C[C@H](NC(=O)Nc1ccc(-c2c(C#N)c3ccc(Oc4ncccn4)cc3n2C2CCC2)cc1)c1ccc(F)cc1 [Compound 2820] | 152 °C (dec.)
49 | COCCN(C)C(=O)c1ccc2c(C#N)c(-c3ccc(NS(=O)(=O)C4CC4)cc3)n(C3CCC3)c2c1 [Compound 2824] | 201 to 203 °C
50 | N#Cc1c(-c2ccc(NS(=O)(=O)C3CC3)cc2)n(C2CCC2)c2cc(C(=O)N3CCOCC3)ccc12 [Compound 2825] | 125 to 128 °C
51 | N#Cc1c(-c2ccc(NS(=O)(=O)C3CC3)cc2)n(C2CCC2)c2cc(C(=O)N3CCSCC3)ccc12 [Compound 2826] | 205 to 207 °C
52 | C[C@@H](OC(=O)Nc1ccc(-c2c(C#N)c3ccc(OCCn4ccnc4)cc3n2C2CC2)cc1)c1ccc(F)cc1 [Compound 2828] | 225 to 230 °C
53 | C[C@@H](OC(=O)Nc1ccc(-c2c(C#N)c3cc(N4CCOCC4)ccc3n2C2CCC2)cc1)c1ccc(F)cc1 [Compound 2829] | 163 to 168 °C
54 | C[C@@H](OC(=O)Nc1ccc(-c2c(C#N)c3ccc(OCCCCn4cncn4)cc3n2C2CCC2)cc1)C(F)(F)F [Compound 2830] | 161 to 162 °C
55 | C[C@@H](OC(=O)Nc1ccc(-c2c(C#N)c3cc(N4CCOCC4)ccc3n2C2CCC2)cc1)C(F)(F)F [Compound 2832] | 197 to 202 °C
56 | CNS(=O)(=O)Nc1ccc(-c2c(C#N)c3ccc(OC4CCOCC4)cc3n2C2CCC2)cc1 [Compound 2833] | 218 to 220 °C
57 | CCNS(=O)(=O)Nc1ccc(-c2c(C#N)c3ccc(OC4CCOCC4)cc3n2C2CCC2)cc1 [Compound 2834] | 199 to 201 °C
58 | CC[C@H](C)NS(=O)(=O)Nc1ccc(-c2c(C#N)c3ccc(OC4CCOCC4)cc3n2C2CCC2)cc1 [Compound 2835] | 196 to 198 °C
59 | CCC(CC)NS(=O)(=O)Nc1ccc(-c2c(C#N)c3ccc(OC4CCOCC4)cc3n2C2CCC2)cc1 [Compound 2836] | 193 to 195 °C
60 | N#Cc1c(-c2ccc(NS(=O)(=O)NCC3CC3)cc2)n(C2CCC2)c2cc(OC3CCOCC3)ccc12 [Compound 2837] | 210 to 212 °C
61 | CCn1ccnc1CCOc1ccc2c(C#N)c(-c3ccc(NC(=O)OC(C)C)cc3)n(C3CCC3)c2c1 [Compound 2842] | 203 to 212 °C
62 | COCCOc1ccc2c(C#N)c(-c3ccc(C(=O)NCCN4CCOCC4)cc3)n(C3CCC3)c2c1 [Compound 2844] | 169 to 170 °C
63 | N#Cc1c(-c2ccc(NC(N)=S)cc2)n(C2CCC2)c2cc(OC3COCOC3)ccc12 [Compound 2846] | 202 to 204 °C
64 | CC(C)S(=O)(=O)Nc1ccc(-c2c(C#N)c3cc(Oc4ncccn4)ccc3n2C2CCC2)cc1 [Compound 2848] | 206 to 207 °C
65 | CC(C)NC(=O)Nc1ccc(-c2c(C#N)c3cc(Oc4ncccn4)ccc3n2C2CCC2)cc1 [Compound 2851] | 140 to 145 °C
